Results reported in US9878982B2, “Pyridine derivatives and anti-mycobacterial use thereof” (priority 2014, dated 2018).
Converted amounts (≈) assume the structure as drawn.

Columns and labels:
[1] = tested on: Mycobacterium smegmatis strain ATCC19420; assay: In vitro efficacy test using Mycobacterium smegmatis strain ATCC19420 (MIC); assay type: cell-based; conditions: Mycolicibacterium smegmatis, ATCC19420, 72 h, CA-MHB + 0.02% Tween 80, 30° C., read after 72 hours
M. tuberculosis H37Rv = assay: In vitro efficacy test using the H37Rv strain, Microplate Alamar Blue Assay (MABA) MIC; assay type: cell-based, Mycobacterium tuberculosis; conditions: Mycobacterium tuberculosis, H37RV, aerobic; 7H9 medium, Alamar Blue; read-out: M. tuberculosis H37Rv MABA (MIC)
M. tuberculosis H37R = assay: microbe, parasite or virus in culture; assay type: cell-based, Mycobacterium tuberculosis; conditions: Mycobacterium tuberculosis, H37R; read-out: M. tuberculosis H37R LORA (MIC)
Vero Cell = assay: Vero cell cytotoxicity (IC50); assay type: cell-based; conditions: Chlorocebus sabaeus, Vero, African green monkey kidney cells
[2] = Hela cell cytotoxicity (CC50); conditions: human, HeLa cells (human cervical cancer cells), CC50_Hela, half of the toxic concentration

COc1ncc(-c2ccco2)cc1C(c1ccccc1)C(O)(CCN(C)C)c1cccc2ccccc12 (centres unmarked) [Compound 183, 4-(dimethylamino)-1-(5-(furan-2-yl)-2-methoxypyridin-3-yl)-2-(naphthalen-1-yl)-1-phenylbutan-2-ol]
MIC [1]: ≤ 0.0625 µg/mL | MIC (M. tuberculosis H37Rv): 0.5 µg/mL (≈ 1.01 µM) | MIC (M. tuberculosis H37R): 1.33 µg/mL (≈ 2.7 µM) | IC50 (Vero Cell): 24.5 µg/mL (≈ 49.8 µM) | CC50 [2]: > 64 µg/mL

COc1cccc(C(c2cc(-c3ccccc3)cnc2OC)C(O)(CCN(C)C)c2cc(F)cc(F)c2)c1OC (centres unmarked) [Compound 207, 2-(3,5-difluorophenyl)-1-(2,3-dimethoxyphenyl)-4-(dimethylamino)-1-(2-methoxy-5-phenylpyridin-3-yl)butan-2-ol]
MIC [1]: ≤ 0.0625 µg/mL | MIC (M. tuberculosis H37Rv): 0.96 µg/mL (≈ 1.75 µM) | MIC (M. tuberculosis H37R): 0.99 µg/mL (≈ 1.8 µM) | IC50 (Vero Cell): 25.7 µg/mL (≈ 46.8 µM) | CC50 [2]: 10.3 µg/mL (≈ 18.7 µM)

COc1cccc(C(c2cc(-c3ccccc3)cnc2OC)C(O)(CCN(C)C)c2cccc(Cl)c2)c1OC (centres unmarked) [Compound 209, 2-(3-chlorophenyl)-1-(2,3-dimethoxyphenyl)-4-(dimethylamino)-1-(2-methoxy-5-phenylpyridin-3-yl)butan-2-ol]
MIC [1]: 0.0312 µg/mL | MIC (M. tuberculosis H37Rv): 0.89 µg/mL (≈ 1.63 µM) | MIC (M. tuberculosis H37R): 0.84 µg/mL (≈ 1.54 µM) | IC50 (Vero Cell): 27.3 µg/mL (≈ 49.9 µM) | CC50 [2]: 13.3 µg/mL (≈ 24.3 µM)

COc1cccc(C(c2cc(-c3ccccc3)cnc2OC)C(O)(CCN(C)C)c2cc(Cl)cc(Cl)c2)c1OC (centres unmarked) [Compound 213, 2-(3,5-dichlorophenyl)-1-(2,3-dimethoxyphenyl)-4-(dimethylamino)-1-(2-methoxy-5-phenylpyridin-3-yl)butan-2-ol]
MIC [1]: ≤ 0.0625 µg/mL | MIC (M. tuberculosis H37Rv): 0.125 µg/mL (≈ 0.215 µM) | MIC (M. tuberculosis H37R): 0.46 µg/mL (≈ 0.791 µM) | IC50 (Vero Cell): 25.2 µg/mL (≈ 43.3 µM) | CC50 [2]: > 64 µg/mL

CCOc1ncc(-c2ccccc2)cc1C(c1ccccc1)C(O)(CCN(C)C)c1cccc2ccccc12 (centres unmarked) [Compound 217, 4-(dimethylamino)-1-(2-ethoxy-5-phenylpyridin-3-yl)-2-(naphthalen-1-yl)-1-phenylbutan-2-ol]
MIC [1]: ≤ 0.0625 µg/mL | MIC (M. tuberculosis H37Rv): 0.41 µg/mL (≈ 0.794 µM) | MIC (M. tuberculosis H37R): 1.66 µg/mL (≈ 3.21 µM) | IC50 (Vero Cell): > 32 µg/mL | CC50 [2]: > 64 µg/mL

COc1cccc(C(c2cc(-c3ccccc3)cnc2OC)C(O)(CCN(C)C)c2ccccc2)c1F (centres unmarked) [Compound 226, 4-(dimethylamino)-1-(2-fluoro-3-methoxyphenyl)-1-(2-methoxy-5-phenylpyridin-3-yl)-2-phenylbutan-2-ol]
MIC [1]: 0.125 µg/mL | MIC (M. tuberculosis H37Rv): 0.44 µg/mL (≈ 0.879 µM) | MIC (M. tuberculosis H37R): 0.97 µg/mL (≈ 1.94 µM) | IC50 (Vero Cell): 25.5 µg/mL (≈ 50.9 µM) | CC50 [2]: 13.1 µg/mL (≈ 26.2 µM)

COc1ccc(C(c2cc(-c3ccccc3)cnc2OC)C(O)(CCN(C)C)c2ccccc2)cc1 (centres unmarked) [Compound 237, 4-(dimethylamino)-1-(2-methoxy-5-phenylpyridin-3-yl)-1-(4-methoxyphenyl)-2-phenylbutan-2-ol]
MIC [1]: 0.5 µg/mL | MIC (M. tuberculosis H37Rv): 1.89 µg/mL (≈ 3.92 µM) | MIC (M. tuberculosis H37R): 3.07 µg/mL (≈ 6.36 µM) | IC50 (Vero Cell): 24.3 µg/mL (≈ 50.3 µM) | CC50 [2]: 15.6 µg/mL (≈ 32.4 µM)

COc1ncc(-c2csc(Cl)c2)cc1C(c1ccccc1)C(O)(CCN(C)C)c1cccc2ccccc12 (centres unmarked) [Compound 245, 1-(5-(5-chlorothiophen-3-yl)-2-methoxypyridin-3-yl)-4-(dimethylamino)-2-(naphthalen-1-yl)-1-phenylbutan-2-ol]
MIC [1]: ≤ 0.0625 µg/mL | MIC (M. tuberculosis H37Rv): 0.86 µg/mL (≈ 1.58 µM) | MIC (M. tuberculosis H37R): 1.39 µg/mL (≈ 2.56 µM) | IC50 (Vero Cell): > 32 µg/mL | CC50 [2]: > 64 µg/mL

COc1ncc(-c2ccsc2Cl)cc1C(c1ccccc1)C(O)(CCN(C)C)c1cccc2ccccc12 (centres unmarked) [Compound 251, 1-(5-(2-chlorothiophen-3-yl)-2-methoxypyridin-3-yl)-4-(dimethylamino)-2-(naphthalen-1-yl)-1-phenylbutan-2-ol]
MIC [1]: 0.25 µg/mL | MIC (M. tuberculosis H37Rv): 0.64 µg/mL (≈ 1.18 µM) | MIC (M. tuberculosis H37R): 1.39 µg/mL (≈ 2.56 µM) | IC50 (Vero Cell): > 32 µg/mL | CC50 [2]: > 64 µg/mL

COc1ncc(C2CCSCC2)cc1C(c1ccccc1)C(O)(CCN(C)C)c1cccc2ccccc12 (centres unmarked) [Compound 255, 4-(dimethylamino)-1-(2-methoxy-5-(tetrahydro-2H-thiopyran-4-yl)pyridin-3-yl)-2-(naphthalen-1-yl)-1-phenylbutan-2-ol]
MIC [1]: 0.25 µg/mL | MIC (M. tuberculosis H37Rv): 0.48 µg/mL (≈ 0.911 µM) | MIC (M. tuberculosis H37R): 8.33 µg/mL (≈ 15.8 µM) | IC50 (Vero Cell): > 32 µg/mL | CC50 [2]: > 64 µg/mL

COc1ncc(C2=CCSCC2)cc1C(c1ccccc1)C(O)(CCN(C)C)c1cccc2ccccc12 (centres unmarked) [Compound 259, 1-(5-(3,6-dihydro-2H-thiopyran-4-yl)-2-methoxypyridin-3-yl)-4-(dimethylamino)-2-(naphthalen-1-yl)-1-phenylbutan-2-ol]
MIC [1]: 0.125 µg/mL | MIC (M. tuberculosis H37Rv): 0.32 µg/mL (≈ 0.61 µM) | MIC (M. tuberculosis H37R): 4.33 µg/mL (≈ 8.25 µM) | IC50 (Vero Cell): > 32 µg/mL | CC50 [2]: > 64 µg/mL

CC#Cc1cnc(OC)c(C(c2ccccc2)C(O)(CCN(C)C)c2cccc3ccccc23)c1 (centres unmarked) [Compound 263, 4-(dimethylamino)-1-(2-methoxy-5-prop-1-ynyl-3-pyridyl)-2-(1-naphthyl)-1-phenylbutan-2-ol]
MIC [1]: 0.5 µg/mL | MIC (M. tuberculosis H37Rv): 1.38 µg/mL (≈ 2.97 µM) | MIC (M. tuberculosis H37R): 2.08 µg/mL (≈ 4.48 µM) | IC50 (Vero Cell): > 32 µg/mL | CC50 [2]: > 64 µg/mL

COc1ncc(N2CCOCC2)cc1C(c1ccccc1)C(O)(CCN(C)C)c1cccc2ccccc12 (centres unmarked) [Compound 269, 4-(dimethylamino)-1-(2-methoxy-5-morpholinopyridin-3-yl)-2-(naphthalen-1-yl)-1-phenylbutan-2-ol]
MIC [1]: 0.25 µg/mL | MIC (M. tuberculosis H37Rv): 5.64 µg/mL (≈ 11 µM) | MIC (M. tuberculosis H37R): 6.3 µg/mL (≈ 12.3 µM) | IC50 (Vero Cell): > 32 µg/mL | CC50 [2]: 17.4 µg/mL (≈ 34.1 µM)

COc1ncc(-c2ccc(Cl)cc2)cc1C(c1ccccc1)C(O)(CCN(C)C)c1cc(F)cc(F)c1 (centres unmarked) [Compound 280, 1-(5-(4-chlorophenyl)-2-methoxypyridin-3-yl)-2-(3,5-difluorophenyl)-4-dimethylamino-1-phenylbutan-2-ol]
MIC [1]: 0.0156 µg/mL | MIC (M. tuberculosis H37Rv): 0.04 µg/mL (≈ 0.0765 µM) | MIC (M. tuberculosis H37R): 0.16 µg/mL (≈ 0.306 µM) | IC50 (Vero Cell): > 32 µg/mL | CC50 [2]: 35 µg/mL (≈ 66.9 µM)

COc1ncc(-c2ccc(C(F)(F)F)cc2)cc1C(c1ccccc1)C(O)(CCN(C)C)c1cccc2ccccc12 (centres unmarked) [Compound 285, 4-(dimethylamino)-1-(2-methoxy-5-(4-(trifluoromethyl)phenyl)pyridin-3-yl)-2-(naphthalen-1-yl)-1-phenylbutan-2-ol]
MIC [1]: 0.0156 µg/mL | MIC (M. tuberculosis H37Rv): 0.96 µg/mL (≈ 1.68 µM) | MIC (M. tuberculosis H37R): 0.63 µg/mL (≈ 1.1 µM) | IC50 (Vero Cell): > 32 µg/mL | CC50 [2]: > 64 µg/mL

COc1ncc(-c2ccc(Cl)cc2)cc1C(c1ccccc1)C(O)(CCN(C)C)c1cccc(F)c1F (centres unmarked) [Compound 287, 1-(5-(4-chlorophenyl)-2-methoxy-3-pyridyl)-2-(2,3-difluorophenyl)-4-dimethylamino-1-phenylbutan-2-ol]
MIC [1]: 0.0312 µg/mL | MIC (M. tuberculosis H37Rv): 0.04 µg/mL (≈ 0.0765 µM) | MIC (M. tuberculosis H37R): 0.16 µg/mL (≈ 0.306 µM) | IC50 (Vero Cell): > 32 µg/mL | CC50 [2]: > 64 µg/mL

COc1ncc(-c2ccc(Cl)cc2)cc1C(c1ccccc1)C(O)(CCN(C)C)c1cccc(F)c1 (centres unmarked) [Compound 297]
MIC [1]: 0.0312 µg/mL | MIC (M. tuberculosis H37Rv): 0.1 µg/mL (≈ 0.198 µM) | MIC (M. tuberculosis H37R): 0.74 µg/mL (≈ 1.47 µM) | IC50 (Vero Cell): > 32 µg/mL | CC50 [2]: 39.1 µg/mL (≈ 77.5 µM)

COc1ccc(-c2cnc(OC)c(C(c3ccccc3)C(O)(CCN(C)C)c3cccc4ccccc34)c2)cc1 (centres unmarked) [Compound 299, 4-(dimethylamino)-1-(2-methoxy-5-(4-methoxyphenyl)pyridin-3-yl)-2-(naphthalen-1-yl)-1-phenylbutan-2-ol]
MIC [1]: 0.125 µg/mL | MIC (M. tuberculosis H37Rv): 0.33 µg/mL (≈ 0.62 µM) | MIC (M. tuberculosis H37R): 0.19 µg/mL (≈ 0.357 µM) | IC50 (Vero Cell): > 32 µg/mL | CC50 [2]: > 64 µg/mL

COc1ncc(-c2ccc(Cl)c(F)c2)cc1C(c1ccccc1)C(O)(CCN(C)C)c1cccc2ccccc12 (centres unmarked) [Compound 303, 1-(5-(4-chloro-3-fluorophenyl)-2-methoxypyridin-3-yl)-4-(dimethylamino)-2-(naphthalen-1-yl)-1-phenylbutan-2-ol]
MIC [1]: 0.0312 µg/mL | MIC (M. tuberculosis H37Rv): 0.19 µg/mL (≈ 0.342 µM) | MIC (M. tuberculosis H37R): 0.52 µg/mL (≈ 0.937 µM) | IC50 (Vero Cell): > 32 µg/mL | CC50 [2]: > 64 µg/mL
